# Measurements reported in patent US5545648A (Canadian Spinal Research Organization, priority 1992, dated 1996).
# Where “and” joins values, the source holds several entries; their conditions need not be identical. Equal entries are not always repeated. Entries after “also recorded” stand apart in the source; their conditions may differ.
# Legend:
# [1] = tested on: spinal cord injured patients; test: Neurological examination, motor and sensory score (modified ASIA standards), double-blind placebo-controlled crossover study; assay type: in vivo, human; parameters: key to change in sensory score, -ve / change in sensory score, +ve / change in sensory score, -ve, TOTAL: change in summed sensory points (each item graded 0-4)
# Protocol: The experimental design was a double-blind, placebo-controlled, crossover study in which each patient was administered the drug and a vehicle control on different occasions, separated by two weeks. The order of delivery was randomized.
# (§1) The schedule of each trial was the same. The patient was admitted to the hospital on the preceding day and in the early morning was assessed by neurological examination and electro-diagnostic evaluation. Administration of the drug or placebo, through an in dwelling venous catheter, was then begun and continued for approximately 2 hours, arranged in 20 minute sequences based on delivery of 1 ml aliquots of the 4-AP solution. The patient was monitored electroencephalographically at frequent intervals throughout the procedure. Samples of blood and urine were obtained from an additional intravenous catheter and from the urinary catheter respectively. Blood was obtained at intervals up to 5 hours from the beginning of drug delivery and urine obtained pre-infusion and at 1 and 2 hours after the beginning of infusion. The patients were re-evaluated by complete neurological examination, by the same examiner, at the end of the period of drug delivery. They were then re-examined with the electrodiagnostic tests. A more limited neurological examination was sometimes performed during drug delivery in an attempt to identify any early changes, without producing significant testing fatigue. The electrodiagnostic tests were repeated at 2 hours after the cessation of drug delivery. Patients showing apparent effects of the treatment remained in the hospital overnight and were examined on the following day. Subsequent contact with the patients was by telephone interview or as a result of their correspondence regarding longer term changes associated with their treatment.
# Two of the patients who reported more prolonged effects of the drug were returned to the hospital after 4 months for a second, unblinded trial, which included neurological examinations daily for 3-4 days. Plasma samples were also obtained daily from these two patients, for measurement of 4-AP.
# (§2) Patients were evaluated using a modified form of the American Spinal Injury Association (ASIA) Standards for Neurological Classification of Spinal Injury Patients (revised 1990). The modifications were mainly required to simplify the examination so that it could be performed on patients lying on a bed with intravenous catheters, electrodes and urethral catheters restricting the range of motion. Examinations performed after the day of drug delivery were made on an outpatient basis with the subjects partially clothed, and evaluation of dermatomes was sometimes incomplete. Each part of the examination was videotaped for later review and was repeated on the two sides of the body.
# Grading of motor abilities was made on the ASIA 0-5 point scale wherever possible:
# 0--absent (total paralysis)
# 1--trace (palpable or visible contraction producing little or no movement around joint)
# 2--poor (active movement through much or all of the normal range of motion, with gravity eliminated--where relevant)
# 3--fair (active movement through full range of motion against gravity)
# 4--good (active movement against resistance)
# The muscles examined included: deltoid, biceps, triceps, wrist extensors, wrist flexors, finger flexors and extensors (combined), hip flexors (iliopsoas), hip extensors, quadriceps, hamstrings, ankle dorsiflexors (tibiails anterior) and plantarflexors (gastrocnemius, soleus), and toe extensors (extensor hallucis longus). The total possible score for the full motor examination was 130.
# (§3) Sensory abilities were graded on an analogous 0-4 point scale:
# 0--absent (no ability to detect the stimulus)
# 1--trace (patchy or variable ability to detect stimulus with little or no resolution of quality)
# 2--light (able to detect stimulus but much weaker, or of altered quality relative to equivalent unaffected areas) […]
# [2] = tested on: spinal cord injured patients; test: Vibration sensation score; assay type: in vivo, human
# Protocol: as §1, §2, §3
# The sensory modalities tested were light touch, pinprick, vibration, joint position, and temperature. The dermatomes tested for touch and pinprick were: C5,6,7,8, T1,T7-9,L1,2,3,4,5, and S1, giving a total possible score of 96 for each modality. Vibration sensation was usually tested bilaterally, at the shoulder, elbow, knee and ankle. Temperature sensation was tested, with the subject's eyes closed, by blowing cool air from a distance or breathing warm air in close proximity on the dorsal surface of the hands and feet. Joint position sense was examined with the subject's eyes closed, by imposed flexion and extension movements of the thumb and great toe. The total possible score for the full sensory examination was 256 points.
# Though the examiners assigned half point scores in cases where they felt that subjects fell between score categories, any half point differences between pre- and post-infusion scores have been ignored in this analysis. Also omitted from this tabulation are the scores for vibration sensation, which are shown separately in Table 3. […]
# [3] = tested on: spinal cord injured patients; test: Negative side-effects, EEG and vital sign monitoring; assay type: in vivo, human
# Protocol: as §1
# Immediately before and after the infusion of 4-AP or placebo, and at approximately 2 hours after the end of the infusion, patients were evaluated with a set of standard electro-diagnostic tests: conduction in peroneal, posterior tibial and sural nerves, electromyography of tibial is anterior and gastroc-nemius muscles during rest and maximal voluntary contraction, and somatosensory evoked potentials. Patients were also monitored with electroencephalography, at intervals during the infusion, to look for evidence of potential for seizure activity.
# [4] = tested on: surviving myelinated axons of spinal cord; details: single nerve fibers; cited from earlier work
# potassium channels = details: cited from earlier work
# [5] = tested on: multiple sclerosis patients; details: cited from earlier work
# [6] = 2 hours after infusion of 4-AP, total of 8 subjects
# [7] = 2 hours after infusion of 4-AP, total of 8 subjects, without vibration
# [8] = 2 hours after infusion of 4-AP, total possible 130, one line per subject: b160 RB, b161 SC, HT, LJ, EB, GCh, AW, GCu
# [9] = 2 hours after infusion of 4-AP, total possible 224, without vibration, one line per subject: b160 RB, b161 SC, HT, LJ, EB, GCh, AW, GCu
# [10] = 2 hours after infusion of 4-AP, total of subjects
# [11] = 2 hours after infusion of 4-AP, total possible 32, one line per subject: b182 RB, SC, HT, LJ, EB, b187 GCh, AW, b189 GCu
smiles,measurement,setting,value
"Nc1ccncc1 [4-AP, 4-aminopyridine]","change in motor score, +ve, TOTAL",[1]; [6],+26
same,"change in motor score, -ve, TOTAL",[1]; [6],0
same,"change in sensory score, +ve, TOTAL",[1]; [7],+66
same,"change in sensory score, -ve, TOTAL",[1]; [7],-7
same,"change in motor score, +ve",[1]; [8],0 and +4 and +16 and +2
same,"change in motor score, -ve",[1]; [8],0
same,"change in sensory score, +ve",[1]; [9],0 and +3 and +2 and +14 and +27 and +20
same,"change in sensory score, -ve",[1]; [9],0 and -5 and -2
same,initial pinprick response in most distal dermatomes,"[1]; 2 hours after infusion, second trial",initial depression of response in the most distal dermatomes
same,pinprick sensation and joint position sense below the lesion,"[1]; 24 hours, not seen at 2 hours, subject three",striking improvement of pinprick sensation and joint position sense below the lesion
same,persistence of motor score increase,"[1]; 24 hours, second trial, subject four",increases in score were sustained at 24 hours after infusion
same,persistence of pinprick improvement,"[1]; 48 hours post infusion, second trial, EB and GCh",still detectable at 48 hour post infusion in both cases
same,reversal of sensory effect,"[1]; 72 hours, subject GCh, second trial",returned completely to pre-infusion status; also recorded: entirely reversed by 72 hours
same,time of maximal motor improvement,"[1]; after infusion, second trial, subject four (FIG. 5)",2 h
same,time of maximal improvement in sensory (pinprick) score,"[1]; after infusion, second trial, subjects",24 h
same,"motor performance, greater endurance / reversal of leg muscle rigidity effects","[1]; second administration, leg muscles, hip and knee",reduction in the spasticity of leg muscles led at times to a reduction of motor power
same,pinprick sensation below level of injury,"[1]; second, unblinded administration, EB and GCh",remarkable increase in the response to pinprick stimulation below the level of injury
same,"change in total score for vibration sensation, +ve, TOTAL",[2]; [10],+1
same,"change in total score for vibration sensation, -ve, TOTAL",[2]; [10],-12
same,"change in total score for vibration sensation, +ve",[2]; [11],0 and +1
same,"change in total score for vibration sensation, -ve",[2]; [11],0 and -7 and -4 and -2
same,vibration sensation score (in words),"[2]; after 4-AP infusion, three subjects",scores in three subjects decreased substantially
same,most frequent side effect: arm discomfort,[3]; arm in which the drug was infused,discomfort in the arm in which the drug was infused
same,adverse indications on EEG and vital signs,[3]; during infusion,No adverse indications were detected
same,duration of warm sensation under the skin from neck to back,[3]; subject four,two days
same,side effects in individual subject,[3]; subject named in the block (LJ; EB; GCh; AW),"pain in the left arm, and some nausea and light-headedness; also recorded: ""warm sensation under the skin from neck to back"" for two days and an episode of constipation; also recorded: no negative side effects; also recorded: After 21 mg of the infusion, their arm became quite painful and they became anxious, then angry, and began to show alternative bouts of sweating and shivering"
same,infusion suspended / not completed,"[3]; subject two, 25 mg rather than planned 30 mg","Infusion was suspended in this case because of a combination of discomfort in the arm at the site of infusion, and a significant degree of agitation and anxiety"
same,overcoming of conduction block,[4],Some of this conduction block can be overcome
same,spontaneous activity of injured nerve fibres on potassium channel blockade,potassium channels,"tends to produce or enhance such spontaneous activity and to elicit ""burst"" (multiple action potential) responses"
same,motor strength and sensory deficits,[5],selective increases in motor strength and recovery of sensory deficits
